Measured values taken from PMC5420329 (Journal of medicinal chemistry, 2015).
Read-outs that look alike come from different tables or passages of the source.

Assays:
[1] = system: betacellulin; assay: Inhibition of betacellulin shedding in A549 cells; assay type: cell-based; conditions: for inhibition at 40 µM: Homo sapiens, A549, read-out: BTC (betacellulin) shedding inhibition
[2] = system: zinc metalloproteinases; assay: Selectivity testing against extended panel of zinc metalloproteinases; assay type: biochemical; conditions: ADAM17 versus five other metzincins
[3] = system: CXCL16; assay: CXCL16 shedding inhibition in HTSMC; assay type: cell-based, human; conditions: for CXCL16 shedding inhibition: HTSMC, 10 μM; for inhibition at 10 µM: Homo sapiens, read-out: CXCL16 shedding inhibition
[4] = system: TGFα; assay: Inhibition of TGFα shedding in A549 cells; assay type: cell-based; conditions: for inhibition at 40 µM: Homo sapiens, A549, read-out: TGFα shedding inhibition
[5] = system: Heregulin; assay: Inhibition of heregulin shedding in A549 cells; assay type: cell-based; conditions: for inhibition at 40 µM: Homo sapiens, A549, read-out: Heregulin shedding inhibition
[6] = system: HEPG2 cells; assay: CellTiter Glo cell viability assay; assay type: cell-based; conditions: 72 h, up to 33 μM
[7] = system: A549 cells; assay: Synergy studies, A549 viability assay
[8] = system: HT1080 cells; assay: Transwell invasion assay; assay type: cell-based, human; conditions: Matrigel
[9] = system: Notch; conditions: SKMEL-28, 25 μM; ref Personal communication from Dr. Kaushik (Kansas University Medical Center); cited from earlier work
[10] = system: wtPTK7; assay: Inhibition of PTK7 shedding in SW480 cells; assay type: cell-based
[11] = system: L622D-PTK7; assay: Inhibition of PTK7 shedding in HT1080-L622D cells; assay type: cell-based, human
[12] = system: A549 cells; assay: CellTiter Glo cell viability assay; assay type: cell-based; conditions: 72 h, up to 33 μM
[13] = target: ADAM10 (Homo sapiens, UniProt O14672); assay: ADAM10 glycosylated substrate assay; assay type: biochemical
ADAM10, sequence (O14672 214-748): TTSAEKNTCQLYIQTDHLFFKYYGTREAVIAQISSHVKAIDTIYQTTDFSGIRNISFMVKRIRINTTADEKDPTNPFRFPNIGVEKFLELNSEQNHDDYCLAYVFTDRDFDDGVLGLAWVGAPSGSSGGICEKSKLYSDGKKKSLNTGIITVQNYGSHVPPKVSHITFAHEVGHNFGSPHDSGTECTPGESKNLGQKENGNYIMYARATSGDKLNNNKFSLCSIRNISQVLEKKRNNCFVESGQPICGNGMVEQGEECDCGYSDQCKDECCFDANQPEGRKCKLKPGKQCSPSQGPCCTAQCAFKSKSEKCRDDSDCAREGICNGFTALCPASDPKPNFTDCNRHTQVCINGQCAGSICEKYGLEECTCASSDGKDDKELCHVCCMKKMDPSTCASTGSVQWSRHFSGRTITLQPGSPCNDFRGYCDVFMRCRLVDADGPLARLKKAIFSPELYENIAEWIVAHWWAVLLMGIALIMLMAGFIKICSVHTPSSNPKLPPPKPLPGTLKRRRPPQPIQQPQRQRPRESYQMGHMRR

[14] = system: MDA-MB-231 cells; assay: CellTiter Glo cell viability assay; assay type: cell-based; conditions: 72 h, up to 33 μM
[15] = target: MMP2 (Homo sapiens, UniProt P08253); assay: MMP assay; assay type: biochemical
MMP2, sequence (P08253 110-660, species assumed): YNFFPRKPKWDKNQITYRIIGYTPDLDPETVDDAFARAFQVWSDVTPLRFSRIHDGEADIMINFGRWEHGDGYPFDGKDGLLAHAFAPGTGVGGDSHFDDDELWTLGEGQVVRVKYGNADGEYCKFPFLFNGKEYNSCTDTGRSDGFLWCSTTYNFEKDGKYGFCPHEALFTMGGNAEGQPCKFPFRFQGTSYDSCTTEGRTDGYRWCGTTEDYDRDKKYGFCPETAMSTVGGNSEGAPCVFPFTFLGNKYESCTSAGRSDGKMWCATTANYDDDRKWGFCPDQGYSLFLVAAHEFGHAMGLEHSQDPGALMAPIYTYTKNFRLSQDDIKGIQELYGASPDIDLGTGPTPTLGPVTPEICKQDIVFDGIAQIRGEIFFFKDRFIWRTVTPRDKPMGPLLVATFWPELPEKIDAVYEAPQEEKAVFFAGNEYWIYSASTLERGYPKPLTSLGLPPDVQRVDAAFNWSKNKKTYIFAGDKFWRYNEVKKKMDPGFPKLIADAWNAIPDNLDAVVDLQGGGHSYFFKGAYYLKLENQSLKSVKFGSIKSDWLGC

[16] = target: MMP9 (Homo sapiens, UniProt P14780); assay: MMP assay; assay type: biochemical
MMP9, sequence (P14780 94-707, species assumed): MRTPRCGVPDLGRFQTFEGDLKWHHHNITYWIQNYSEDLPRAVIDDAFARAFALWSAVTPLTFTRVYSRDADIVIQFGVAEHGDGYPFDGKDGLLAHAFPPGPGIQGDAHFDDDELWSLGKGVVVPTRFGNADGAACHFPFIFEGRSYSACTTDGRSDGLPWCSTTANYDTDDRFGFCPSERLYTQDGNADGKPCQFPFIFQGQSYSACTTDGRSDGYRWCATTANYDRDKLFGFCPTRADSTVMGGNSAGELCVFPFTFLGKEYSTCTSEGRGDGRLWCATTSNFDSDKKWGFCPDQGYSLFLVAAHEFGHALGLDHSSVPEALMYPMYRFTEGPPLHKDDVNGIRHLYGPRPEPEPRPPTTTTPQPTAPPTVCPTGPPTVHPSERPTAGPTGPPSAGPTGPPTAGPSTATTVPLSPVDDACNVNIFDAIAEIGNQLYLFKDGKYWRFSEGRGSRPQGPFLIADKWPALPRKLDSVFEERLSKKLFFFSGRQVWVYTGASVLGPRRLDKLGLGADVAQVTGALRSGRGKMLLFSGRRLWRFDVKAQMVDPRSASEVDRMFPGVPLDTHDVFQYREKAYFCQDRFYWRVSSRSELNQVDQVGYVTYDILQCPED

[17] = target: MMP14 (Homo sapiens, UniProt P50281); assay: MMP assay; assay type: biochemical
[18] = system: TNFα; assay: Inhibition of TNFα shedding in THP-1 cells; assay type: cell-based; conditions: Homo sapiens, THP-1, read-out: TNFα shedding inhibition
[19] = target: ADAM17 (Homo sapiens, UniProt P78536); assay: ADAM17 glycosylated substrate assay; assay type: biochemical
ADAM17, sequence (P78536 215-824): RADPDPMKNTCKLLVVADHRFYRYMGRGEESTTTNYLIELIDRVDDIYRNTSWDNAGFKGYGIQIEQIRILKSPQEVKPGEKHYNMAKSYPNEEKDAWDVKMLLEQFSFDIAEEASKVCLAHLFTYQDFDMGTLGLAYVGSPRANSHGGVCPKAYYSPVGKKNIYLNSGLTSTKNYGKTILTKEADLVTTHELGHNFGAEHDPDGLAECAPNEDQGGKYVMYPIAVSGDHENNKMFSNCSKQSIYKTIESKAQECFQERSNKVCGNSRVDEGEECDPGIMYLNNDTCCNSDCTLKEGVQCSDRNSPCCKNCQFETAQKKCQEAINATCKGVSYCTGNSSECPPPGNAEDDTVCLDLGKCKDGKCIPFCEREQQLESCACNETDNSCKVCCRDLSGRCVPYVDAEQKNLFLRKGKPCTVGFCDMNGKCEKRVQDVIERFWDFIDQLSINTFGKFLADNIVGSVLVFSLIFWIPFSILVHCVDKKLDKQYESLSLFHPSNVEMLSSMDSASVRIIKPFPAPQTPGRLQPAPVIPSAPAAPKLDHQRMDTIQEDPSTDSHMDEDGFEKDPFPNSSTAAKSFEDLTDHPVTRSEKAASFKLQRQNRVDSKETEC

[20] = target: MMP8 (Homo sapiens, UniProt P22894); assay: MMP assay; assay type: biochemical
MMP8, sequence (P22894 101-467, species assumed): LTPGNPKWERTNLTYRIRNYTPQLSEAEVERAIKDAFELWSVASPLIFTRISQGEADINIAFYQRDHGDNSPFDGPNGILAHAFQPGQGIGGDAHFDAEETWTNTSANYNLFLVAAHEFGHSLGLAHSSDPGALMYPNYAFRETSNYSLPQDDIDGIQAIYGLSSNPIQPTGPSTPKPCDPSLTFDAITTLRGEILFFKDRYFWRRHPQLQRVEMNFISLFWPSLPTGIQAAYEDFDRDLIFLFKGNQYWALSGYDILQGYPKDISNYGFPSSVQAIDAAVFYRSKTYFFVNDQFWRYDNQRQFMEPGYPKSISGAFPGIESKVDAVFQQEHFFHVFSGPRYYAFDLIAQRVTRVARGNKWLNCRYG

[21] = system: HT1080 cells; conditions: cited from earlier work
[22] = system: EGFR ligand (heregulin, TGFα, HB-EGF, amphiregulin, and EGF); conditions: cited from earlier work
[23] = system: PTK7; conditions: cited from earlier work

CCCC[C@H]1CN([C@@H](Cc2ccc(O)cc2)CN2CCC[C@H]2CN2C(=O)C(=O)NC[C@H]2Cc2ccc3ccccc3c2)C(=O)C(=O)N1CCC12CC3CC(CC(C3)C1)C2 [Compound 16, (S)-4-(2-(Adamantan-1-yl)ethyl)-5-butyl-1-((S)-1-(4-hydroxyphenyl)-3-((S)-2-(((R)-6-(naphthalen-2-ylmethyl)-2,3-dioxopiperazin-1-yl)methyl)pyrrolidin-1-yl)propan-2-yl)piperazine-2,3-dione]
inhibition at 40 µM [1]: 0% | selectivity profile [2]: inhibiting only ADAM17 | CXCL16 shedding inhibition [3]: did not inhibit | inhibition at 10 µM [3]: 0% | inhibition at 40 µM [4]: 0% | inhibition at 40 µM [5]: 0%

O=C1NC[C@@H](Cc2ccc(O)cc2)N(C[C@@H]2CCCN2C[C@@H](Cc2ccc3ccccc3c2)N2C[C@H](Cc3ccc(O)cc3)N(CCC34CC5CC(CC(C5)C3)C4)C(=O)C2=O)C1=O [Compound 17, (5R)-4-(2-((1R,3R)-Adamantan-1-yl)ethyl)-5-(4-hydroxybenzyl)-1-((2R)-1-(2-(((R)-6-(4-hydroxybenzyl)-2,3-dioxopiperazin-1-yl)-methyl)pyrrolidin-1-yl)-3-(naphthalen-2-yl)propan-2-yl)piperazine-2,3-dione]
inhibition at 40 µM [1]: 0% | viability of HEPG2 cells [6]: did not inhibit viability | potentiation of gefitinib activity against A549 cells ([7]; 40 μM compound 17): potentiated gefitinib activity | potentiation of doxorubicin activity ([7]; A549, 40 μM compound 17): did not potentiate the activity | potentiation of etoposide activity ([7]; A549, 40 μM compound 17): did not potentiate the activity | invasion of HT1080 cells [8]: dose-dependent inhibition of invasion | Notch shedding inhibition [9]: 0% | PTK7 shedding inhibition ([10]; SW480 (wtPTK7), PMA, 25–100 μM): 0–82% | shedding of wtPTK-7 ([10]; SW480, PMA stimulated, 50 and 100 μM): inhibited shedding | PTK7 shedding inhibition ([11]; HT1080 (L622D-PTK7), PMA, 25–100 μM): 25–50% | shedding of L622D-PTK7 ([11]; HT1080-L622D, PMA stimulated, 50 and 100 μM): inhibited shedding | CXCL16 shedding inhibition [3]: did not inhibit | inhibition at 10 µM [3]: 0% | shedding of TGFα ([4]; A549, up to 100 μM): did not affect shedding | inhibition at 40 µM [4]: 0% | viability of A549 cells [12]: no intrinsic activity | ADAM10 IC50 ([13]; Table 4 selectivity panel): did not inhibit | Heregulin shedding inhibition ([5]; A549, PMA, 40 μM): completely inhibited shedding | inhibition at 40 µM [5]: 100% | viability of MDA-MB-231 cells [14]: did not inhibit viability

O=C1NC[C@H](Cc2ccccc2)N(C[C@@H]2CCCN2C[C@@H](CC2CCCCC2)N2C[C@H](Cc3ccc(O)cc3)N(CCc3ccccc3)C(=O)C2=O)C1=O [Compound 18, (S)-1((R)-1((S)-2-(((S)-6-Benzyl-2,3-dioxopiperazin-1-yl)methyl)-pyrrolidin-1-yl)-3-cyclohexylpropan-2-yl)-5-(4-hydroxybenzyl)-4-phenethylpiperazine-2,3-dione]
inhibition at 40 µM [1]: 0% | viability of HEPG2 cells [6]: did not inhibit viability | CXCL16 shedding inhibition [3]: did not inhibit | inhibition at 10 µM [3]: 0% | inhibition at 40 µM [4]: 0% | inhibition at 40 µM [5]: 0% | viability of MDA-MB-231 cells [14]: did not inhibit viability

O=C1NC[C@H](Cc2ccccc2)N(C[C@@H]2CCCN2C[C@H](Cc2ccccc2)N2C[C@H](Cc3ccc(O)cc3)N(CCC34CC5CC(CC(C5)C3)C4)C(=O)C2=O)C1=O [Compound 20, (S)-4-(2-(Adamantan-1yl)ethyl)-1-((S)-1-((S)-2-(((S)-6-benzyl-2,3-dioxopiperazin-1-yl)methyl)pyrrolidin-1-yl)-3-phenylpropan-2-yl)-5-(4-hydroxybenzyl)piperazine-2,3-dione]
inhibition at 40 µM [1]: 0% | viability of HEPG2 cells [6]: did not inhibit viability | selectivity profile [2]: inhibiting only ADAM17 | CXCL16 shedding inhibition [3]: did not inhibit | inhibition at 10 µM [3]: 0% | inhibition at 40 µM [4]: 0% | inhibition at 40 µM [5]: 0% | viability of MDA-MB-231 cells [14]: did not inhibit viability

O=C1NC[C@H](Cc2ccccc2)N(C[C@@H]2CCCN2C[C@@H](CC2CCCCC2)N2C[C@H](Cc3ccccc3)N(CCc3ccccc3)C(=O)C2=O)C1=O [Compound 21, (S)-5-Benzyl-1-((R)-1-((S)-2-(((S)-6-benzyl-2,3-dioxopiperazin-1-yl)methyl)pyrrolidin-1-yl)-3-cyclohexylpropan-2-yl)-4-phenethylpiperazine-2,3-dione]
IC50 [15]: > 100 µM | inhibition at 40 µM [1]: 0% | IC50 [16]: > 100 µM | IC50 [17]: > 100 µM | inhibition at 25 µM [18]: 0% | IC50 [19]: 8.5 µM | inhibition at 100 µM ([19]; read-out: ADAM17 %inhibition at 100 μM): 100% | selectivity profile [2]: inhibiting only ADAM17 | inhibition at 40 µM [4]: 0% | IC50 [13]: > 100 µM | IC50 [20]: > 100 µM

COC(=O)N1CC2(CC2)C[C@H](C(=O)NO)[C@H]1C(=O)N1CC=C(c2ccccc2)CC1 [INCB3619]
invasion of HT1080 cells [21]: able to inhibit | heregulin shedding in A549 cells [22]: abrogation of heregulin shedding | shedding of PTK7 [23]: able to inhibit

CNC(=O)[C@@H](NC(=O)[C@H](CC(C)C)[C@H](O)C(=O)NO)C(C)(C)C [Marimastat, (2S,3R)-N4-[(1S)-2,2-dimethyl-1-[(methylamino)carbonyl]propyl]-N1,2-dihydroxy-3-(2-methylpropyl)butanediamide, reference compound]
betacellulin shedding inhibition ([1]; A549, 10 μM): almost complete inhibition | shedding of EGFR ligands (heregulin, TGFα, HB-EGF, amphiregulin, EGF) ([22]; A549 cells): inhibited shedding of each tested EGFR ligand | soluble TGFα in supernatant ([4]; A549, PMA, 10 μM): decreased soluble TGFα in the supernatant of A549 cells to the level of non-PMA-treated control
